In patent publication US20240116985A1, “STAPLED PEPTIDES AND METHODS THEREOF” (priority 2020, published 2024):
Values joined by “and” are separate entries in the source; they are usually repeats but may differ in a detail not shown here. Equal values may be shown once. Read-outs that look alike come from different tables or passages of the source.

Columns and labels:
[1] = molecular target: T1, full-length beta-Catenin (Uniprot ID P35222) (Homo sapiens, UniProt P35222); assay: Fluorescence polarization IC50 (beta-catenin / 5FAM-TCF4 10-53 competition); format: binding
T1 construct: 10 nM full-length beta-Catenin (Uniprot ID P35222)
T1 sequence (P35222 1-781): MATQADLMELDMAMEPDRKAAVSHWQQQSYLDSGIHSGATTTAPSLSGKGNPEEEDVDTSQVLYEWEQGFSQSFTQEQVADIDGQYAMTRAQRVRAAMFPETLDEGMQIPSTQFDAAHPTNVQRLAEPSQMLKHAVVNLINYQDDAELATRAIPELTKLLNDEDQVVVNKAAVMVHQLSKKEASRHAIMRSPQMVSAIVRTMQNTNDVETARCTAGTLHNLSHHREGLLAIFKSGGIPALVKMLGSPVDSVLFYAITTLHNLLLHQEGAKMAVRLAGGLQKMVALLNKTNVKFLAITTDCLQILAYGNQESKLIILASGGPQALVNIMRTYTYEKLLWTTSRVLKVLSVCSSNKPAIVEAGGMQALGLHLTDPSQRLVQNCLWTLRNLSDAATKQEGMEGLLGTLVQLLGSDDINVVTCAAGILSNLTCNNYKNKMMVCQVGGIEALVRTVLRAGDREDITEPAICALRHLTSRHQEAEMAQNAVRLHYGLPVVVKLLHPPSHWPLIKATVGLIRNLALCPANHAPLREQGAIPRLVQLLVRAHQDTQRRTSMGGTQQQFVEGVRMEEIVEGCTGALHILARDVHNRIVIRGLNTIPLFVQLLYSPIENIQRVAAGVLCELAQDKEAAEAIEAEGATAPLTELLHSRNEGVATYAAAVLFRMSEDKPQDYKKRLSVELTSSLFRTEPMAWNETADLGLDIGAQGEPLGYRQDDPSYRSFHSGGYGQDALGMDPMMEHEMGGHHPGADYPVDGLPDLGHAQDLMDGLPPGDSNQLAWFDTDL

CHI Log D procedure = format: physicochemical; details: for chromatographic logD: pH 7.4, CHI Log D; for CHI Log D / logD: pH 7.4
[2] = molecular target: T2, beta-catenin/TCF4 engagement (Homo sapiens, UniProt P35222); assay: Nano-BRET target engagement assay (B-cat-Halo & TCF4-Luc in HEK293 cells); format: cell-based
T2 construct: expressed in transfected cells; host or cells: HEK293
T2 sequence (P35222 1-781): T1 sequence (P35222 1-781)

[3] = test system: TCF/LEF luciferase Reporter in DLD1 cells; assay: TCF reporter assay (DLD1 TCF/LEF luciferase reporter, Bright-Glo); format: cell-based; details: for DLD1 TCF c2 BrightGlo % Inhibition: replicates
Summary of the method: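 Readouts: Bright-Glo luciferase for reporter signal and CellTiter-Glo for cell viability, with absolute IC50 derived. The reporter clone came from lentiviral TCF/LEF-luciferase transduction of DLD1 cells, seeded 5000 cells/well in RPMI with 4% FBS and exposed overnight to serially diluted compounds.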

[4] = fluorescence polarization, beta-catenin, read-out: FP EC50
[5] = Peptide + ST-Protein (SAINT-Protein lipid)
[6] = absolute IC50, read-out: NanoBRET Abs IC50
[7] = absolute IC50, read-out: DLD1 reporter assay Abs IC50
[8] = first dose = 20 uM (plate map), 20 µM
[9] = third dose = 5 uM (plate map), 5 µM
[10] = Abs IC50, read-out: DLD1 reporter assay Abs IC50
[11] = read-out: DLD1 4% Abs IC50, DLD1 4%

## CC(=O)N1CCC[C@]12CC=CCCCC1(CCCC=CCCCOC(=O)N3CC[C@@](C(=O)N[C@@H](CC(=O)O)C(=O)N[C@@H](Cc4csc5ccccc45)C(=O)N[C@@H](CCC(N)=O)C(N)=O)(C3)NC(=O)[C@H](CC(N)=O)NC(=O)[C@H](Cc3ccccc3)NC(=O)[C@H](C)NC(=O)[C@H](C)NC(=O)[C@H](CN(CC(=O)O)CC(F)(F)F)NC(=O)[C@H](Cc3ccsc3)NC1=O)NC(=O)[C@H](CC(C)(C)C)NC(=O)[C@H](CC(=O)O)NC2=O (stereo partly drawn) [I-1001, Ac-PL3-Asp-Npg-B5-3Thi-TfeGA-Ala-Ala-Phe-Asn-PyrS2-Asp-BztA-Gln-NH2]
[1]; [4]
  IC50: 5.53 µM
[1]; read-out: beta-Catenin FP IC50
  IC50: 7.22 µM
CHI Log D procedure
  chromatographic logD: 1.89
[2]; [5]
  Nano-BRET Abs IC50 (uM): inactive
[2]; Peptide only
  Nano-BRET Abs IC50 (uM): inactive
[2]; [6]
  IC50: > 20 µM
[3]; [5]
  TCF Reporter Assay Abs IC50 (uM): inactive
[3]; Peptide only
  TCF Reporter Assay Abs IC50 (uM): inactive
[3]; [7]
  IC50: > 20 µM
[3]; [8]
  DLD1 TCF c2 BrightGlo % Inhibition: −1.2% and 7.5% and 3.5%
[3]; 0.625 µM
  DLD1 TCF c2 BrightGlo % Inhibition: −1.5% and 9.3% and 4.5%
[3]; 1.25 µM
  DLD1 TCF c2 BrightGlo % Inhibition: −7.0% and −2.8% and 6.1%
[3]; 2.5 µM
  DLD1 TCF c2 BrightGlo % Inhibition: −8.0% and −7.6% and −5.0%
[3]; 10 µM
  DLD1 TCF c2 BrightGlo % Inhibition: −3.6% and −4.8% and −7.4%
[3]; [9]
  DLD1 TCF c2 BrightGlo % Inhibition: −6.7% (2×) and −0.7%

## CC(=O)N1CCC[C@]12CC=CCCCC1(CCCC=CCCCOC(=O)N3CC[C@@](C(=O)N[C@@H](Cc4ccsc4)C(=O)N[C@@H](Cc4csc5ccccc45)C(=O)N[C@@H](CCC(N)=O)C(N)=O)(C3)NC(=O)[C@H](CC(N)=O)NC(=O)[C@H](Cc3ccccc3)NC(=O)[C@H](C)NC(=O)[C@H](C)NC(=O)[C@H](CC(=O)O)NC(=O)[C@H](CC(=O)O)NC1=O)NC(=O)[C@H](CC(C)(C)C)NC(=O)[C@H](CC(=O)O)NC2=O (stereo partly drawn) [I-686, Ac-PL3-Asp-Npg-B5-Asp-Asp-Ala-Ala-Phe-Asn-PyrS2-3Thi-BztA-Gln-NH2]
CHI Log D procedure
  CHI Log D: 1.997
  logD: 2.0
[3]; [10]
  IC50: 5.6 µM

## CC(=O)N1CCC[C@]12CC=CCCCC1(CCCC=CCCCOC(=O)N3CC[C@@](C(=O)N[C@@H](Cc4ccccc4C(F)(F)F)C(=O)N[C@@H](Cc4csc5ccccc45)C(=O)N[C@@H](CCC(N)=O)C(N)=O)(C3)NC(=O)[C@H](CC(N)=O)NC(=O)[C@H](Cc3ccccc3)NC(=O)[C@H](C)NC(=O)[C@H](C)NC(=O)[C@H](CN(CC(=O)O)CC(F)(F)F)NC(=O)[C@H](CC(=O)O)NC1=O)NC(=O)[C@H](CC(C)(C)C)NC(=O)[C@H](CC(=O)O)NC2=O (stereo partly drawn) [I-927, Ac-PL3-Asp-Npg-B5-Asp-TfeGA-Ala-Ala-Phe-Asn-PyrS2-2F3MeF-BztA-Gln-NH2]
[1]; [4]
  IC50: 0.011 µM
[1]; read-out: beta-Catenin FP IC50
  IC50: 0.011 µM
CHI Log D procedure
  CHI Log D: 2.313
[2]; [6]
  IC50: 8.2 µM
[2]; read-out: NanoBRET Abs IC50
  IC50: 8.2 µM
[3]; [7]
  IC50: 4.2 µM
[3]; [8]
  DLD1 TCF c2 BrightGlo % Inhibition: 77.1% and 77.4% and 80.3%
[3]; 0.625 µM
  DLD1 TCF c2 BrightGlo % Inhibition: 3.5% and 8.0% and 14.3%
[3]; 1.25 µM
  DLD1 TCF c2 BrightGlo % Inhibition: 8.7% and 15.1% and 18.6%
[3]; 2.5 µM
  DLD1 TCF c2 BrightGlo % Inhibition: 23.9% and 33.7% and 42.0%
[3]; 10 µM
  DLD1 TCF c2 BrightGlo % Inhibition: 68.0% and 70.2% and 72.9%
[3]; [9]
  DLD1 TCF c2 BrightGlo % Inhibition: 53.1% and 55.2% and 60.1%

## CC(=O)N1CCC[C@]12CC=CCCCC1(CCCC=CCCCOC(=O)N3CC[C@@](C(=O)N[C@@H](Cc4ccsc4)C(=O)N[C@@H](Cc4csc5ccccc45)C(=O)N[C@@H](CCC(N)=O)C(N)=O)(C3)NC(=O)[C@H](CC(N)=O)NC(=O)[C@H](Cc3ccccc3)NC(=O)[C@H](C)NC(=O)[C@H](C)NC(=O)[C@H](CN(CC(=O)O)CC(F)(F)F)NC(=O)[C@H](CC(=O)O)NC1=O)NC(=O)[C@H](CC(C)(C)C)NC(=O)[C@H](CC(=O)O)NC2=O (single isomer, unassigned) [I-762, Ac-PL3-Asp-Npg-B5-Asp-TfeGA-Ala-Ala-Phe-Asn-PyrS2-3Thi-BztA-Gln-NH2]
[1]; read-out: FP EC50
  IC50: 0.006 µM
[1]; read-out: bCat FP IC50
  IC50: 0.006 µM
[1]; read-out: beta-Catenin FP IC50
  IC50: 0.005 µM
CHI Log D procedure
  CHI Log D: 2.247
  logD: 2.2
[2]; Abs IC50, read-out: NanoBRET Abs IC50
  IC50: 10 µM
[2]; Peptide + ST-Protein (SAINT-Protein lipid), read-out: Nano-BRET Abs IC50
  IC50: 0.7 µM
[2]; Peptide only, read-out: Nano-BRET Abs IC50
  IC50: 11 µM
[2]; read-out: NanoBRET Abs IC50
  IC50: 14 µM
[3]; [10]
  IC50: 6 µM
[3]; Peptide + ST-Protein (SAINT-Protein lipid), read-out: TCF Reporter Assay Abs IC50
  IC50: 0.3 µM
[3]; Peptide only, read-out: TCF Reporter Assay Abs IC50
  IC50: 7 µM
[3]; [8]
  DLD1 TCF c2 BrightGlo % Inhibition: 75.7% and 81.9% and 78.7%
[3]; [11]
  IC50: 7.9 µM
[3]; 0.625 µM
  DLD1 TCF c2 BrightGlo % Inhibition: 14.5% and 18.6% and 9.3%
[3]; 1.25 µM
  DLD1 TCF c2 BrightGlo % Inhibition: 12.9% and 16.9% and 5.5%
[3]; 2.5 µM
  DLD1 TCF c2 BrightGlo % Inhibition: 12.9% and 17.4% and 11.9%
[3]; 10 µM
  DLD1 TCF c2 BrightGlo % Inhibition: 56.8% and 70.2% and 65.6%
[3]; [9]
  DLD1 TCF c2 BrightGlo % Inhibition: 28.2% and 45.2% and 44.6%

## CC(=O)N1CCC[C@]12CC=CCCCC1(CCCC=CCCCCCC[C@@](C)(C(=O)N[C@@H](Cc3ccccc3Cl)C(=O)N[C@@H](Cc3csc4ccccc34)C(=O)N[C@@H](CCC(N)=O)C(N)=O)NC(=O)[C@H](CC(C)C)NC(=O)[C@H](Cc3ccccc3)NC(=O)[C@H](C)NC(=O)[C@H](C)NC(=O)[C@H](CC(=O)O)NC(=O)[C@H](CC(=O)O)NC1=O)NC(=O)[C@H](CC(C)(C)C)NC(=O)[C@H](CC(=O)O)NC2=O (stereo partly drawn) [I-1095, Ac-PL3-Asp-Npg-B5-Asp-Asp-Ala-Ala-Phe-Leu-S8-2C1F-BztA-Gln-NH2]
[1]; read-out: beta-Catenin FP IC50
  IC50: 0.015 µM
CHI Log D procedure
  chromatographic logD: 3.09
[2]; [6]
  IC50: > 20 µM
[3]; [7]
  IC50: > 20 µM

## CC(=O)N1CCC[C@]12CC=CCCCC1(CCCC=CCCCOC(=O)N3CC[C@@](C(=O)N[C@@H](Cc4ccccc4Br)C(=O)N[C@@H](Cc4csc5ccccc45)C(=O)N[C@@H](CCC(N)=O)C(N)=O)(C3)NC(=O)[C@H](CC(N)=O)NC(=O)[C@H](Cc3ccccc3)NC(=O)[C@H](C)NC(=O)[C@H](C)NC(=O)[C@H](CN(CC(=O)O)CC(F)(F)F)NC(=O)[C@H](CC(=O)O)NC1=O)NC(=O)[C@H](CC(C)(C)C)NC(=O)[C@H](CC(=O)O)NC2=O (stereo partly drawn) [I-924, Ac-PL3-Asp-Npg-B5-Asp-TfeGA-Ala-Ala-Phe-Asn-PyrS2-2BrF-BztA-Gln-NH2]
[1]; read-out: beta-Catenin FP IC50
  IC50: 0.007 µM
CHI Log D procedure
  chromatographic logD: 2.28
[2]; [6]
  IC50: 3.3 µM
[3]; [7]
  IC50: 4.5 µM

## CC(=O)N1CCC[C@]12CC=CCCCC1(CCCC=CCCCOC(=O)N3CC[C@@](C(=O)N[C@@H](Cc4ccsc4)C(=O)N[C@@H](Cc4csc5ccccc45)C(=O)N[C@@H](CCC(N)=O)C(N)=O)(C3)NC(=O)[C@H](Cc3ccccc3)NC(=O)[C@H](Cc3ccccc3)NC(=O)[C@H](C)NC(=O)[C@H](C)NC(=O)[C@H](Cc3cccc(C(=O)O)c3)NC(=O)[C@H](CC(=O)O)NC1=O)NC(=O)[C@H](CC(C)(C)C)NC(=O)[C@H](CC(=O)O)NC2=O (stereo partly drawn) [I-852, Ac-PL3-Asp-Npg-B5-Asp-3COOHF-Ala-Ala-Phe-Phe-PyrS2-3Thi-BztA-Gln-NH2]
[1]; read-out: beta-Catenin FP IC50
  IC50: 0.007 µM
CHI Log D procedure
  chromatographic logD: 2.4
[2]; [6]
  IC50: 2.8 µM
[3]; [11]
  IC50: 1.4 µM

## CC(=O)N1CCC[C@]12CC=CCCCC1(CCCC=CCCCOC(=O)N3CC[C@@](C(=O)N[C@@H](Cc4ccccc4Cl)C(=O)N[C@@H](Cc4csc5ccccc45)C(=O)N[C@@H](CCC(N)=O)C(N)=O)(C3)NC(=O)[C@H](CC(N)=O)NC(=O)[C@H](Cc3ccccc3)NC(=O)[C@H](CC(C)C)NC(=O)[C@H](C)NC(=O)[C@H](CN(CC(=O)O)CC(F)(F)F)NC(=O)[C@H](CC(=O)O)NC1=O)NC(=O)[C@H](CC(C)(C)C)NC(=O)[C@H](CC(=O)O)NC2=O (stereo partly drawn) [I-1002, Ac-PL3-Asp-Npg-B5-Asp-TfeGA-Ala-Leu-Phe-Asn-PyrS2-2C1F-BztA-Gln-NH2]
[1]; read-out: beta-Catenin FP IC50
  IC50: 0.009 µM
CHI Log D procedure
  chromatographic logD: 2.6
[2]; [6]
  IC50: 29.8 µM
[3]; [7]
  IC50: > 20 µM
